The subject of this assay is L1210 leukemia ip in BDF1 mice, survival T/C. Kind of assay: NCI In Vivo Anticancer Drug Screen. Data for tumor model L1210 Leukemia (intraperitoneal) in B6D2F1 (BDF1) mice. The note with it: higher = longer survival. Summed up:
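Each compound was tested against a transplantable tumor grown in mice. The endpoint was survival, with treated animals benchmarked against vehicle controls as a simple ratio.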

The mark [1] stands for this setting: endpoint: mean survival time, dose: 100.0 mg/kg/injection, schedule: Q01DX009 (ip), vehicle: saline with Tween-80.
The mark [2] stands for this setting: endpoint: mean survival time, dose: 200.0 mg/kg/injection, schedule: Q01DX009 (ip), vehicle: saline with Tween-80.
Where [3] appears, read: endpoint: mean survival time, dose: 400.0 mg/kg/injection, schedule: Q01DX009 (ip), vehicle: saline with Tween-80.
[4] abbreviates: endpoint: mean survival time, dose: 100.0 mg/kg/injection, schedule: Q04DX003 (ip), vehicle: saline with Tween-80.
Setting [5] is: endpoint: mean survival time, dose: 200.0 mg/kg/injection, schedule: Q04DX003 (ip), vehicle: saline with Tween-80.
[6] abbreviates: endpoint: mean survival time, dose: 400.0 mg/kg/injection, schedule: Q04DX003 (ip), vehicle: saline with Tween-80.
Setting [7] is: endpoint: mean survival time, dose: 100.0 mg/kg/injection, schedule: Q01DX009 (ip), vehicle: Klucel (hydroxypropylcellulose) (HPC).
The mark [8] stands for this setting: endpoint: mean survival time, dose: 200.0 mg/kg/injection, schedule: Q01DX009 (ip), vehicle: Klucel (hydroxypropylcellulose) (HPC).
The mark [9] stands for this setting: endpoint: mean survival time, dose: 400.0 mg/kg/injection, schedule: Q01DX009 (ip), vehicle: Klucel (hydroxypropylcellulose) (HPC).
Where [10] appears, read: endpoint: mean survival time, dose: 100.0 mg/kg/injection, schedule: Q01DX009 (ip), vehicle: saline.

Values joined by “and” are separate entries in the source; they are usually repeats but may differ in a detail not shown here. Equal entries are not always repeated. Inconclusive results and toxic doses are left out.

For the compound `CCC(CN)(c1ccccc1)c1ccccc1`, the T/C runs as follows: (endpoint: mean survival time, dose: 50.0 mg/kg/injection, schedule: Q01DX001 (ip), vehicle: other) 96 % of control; (endpoint: mean survival time, dose: 100.0 mg/kg/injection, schedule: Q01DX001 (ip), vehicle: other) 104 % of control; (endpoint: mean survival time, dose: 200.0 mg/kg/injection, schedule: Q01DX001 (ip), vehicle: other) 102 % of control; (endpoint: mean survival time, dose: 400.0 mg/kg/injection, schedule: Q01DX001 (ip), vehicle: other) 96 % of control.
Regarding `COc1cccc2c1C(=O)c1c(O)c3c(c(O)c1C2=O)CC(O)(C(=O)CO)CC3OC1CC(N)C(O)C(C)O1` (stereo unspecified), the T/C runs as follows: (endpoint: mean survival time, dose: 0.5 mg/kg/injection, schedule: Q01DX008 (ip), vehicle: saline) 151 % of control; (endpoint: mean survival time, dose: 1.0 mg/kg/injection, schedule: Q01DX008 (ip), vehicle: saline) 158 % of control; (endpoint: mean survival time, dose: 2.0 mg/kg/injection, schedule: Q01DX008 (ip), vehicle: saline) 209 % of control; (endpoint: mean survival time, dose: 4.0 mg/kg/injection, schedule: Q01DX008 (ip), vehicle: saline) 98 % of control; (endpoint: median survival time, dose: 4.0 mg/kg/injection, schedule: Q01DX005 (ip), vehicle: water) 121 % of control; (endpoint: median survival time, dose: 6.0 mg/kg/injection, schedule: Q01DX005 (ip), vehicle: other) 115 % of control. Moreover, the T/C (endpoint: median survival time, dose: 11.0 mg/kg/injection, schedule: Q01DX005 (ip), vehicle: other) was 123 % of control; the T/C (endpoint: median survival time, dose: 11.0 mg/kg/injection, schedule: Q01DX005 (ip), vehicle: water) was 177 % of control; the T/C (endpoint: median survival time, dose: 11.0 mg/kg/injection, schedule: Q04DX003 (ip), vehicle: water) is 115 % of control; the T/C (endpoint: median survival time, dose: 16.0 mg/kg/injection, schedule: Q01DX005 (ip), vehicle: other) was 123 % of control; the T/C (endpoint: median survival time, dose: 19.0 mg/kg/injection, schedule: Q01DX005 (ip), vehicle: water) was 177 % of control; the T/C (endpoint: median survival time, dose: 31.0 mg/kg/injection, schedule: Q01DX005 (ip), vehicle: water) is 155 % of control. Also, the T/C (endpoint: median survival time, dose: 31.0 mg/kg/injection, schedule: Q04DX003 (ip), vehicle: water) is 121 % of control; the T/C (endpoint: median survival time, dose: 51.6 mg/kg/injection, schedule: Q01DX005 (ip), vehicle: water) was 152 % of control; the T/C (endpoint: median survival time, dose: 52.0 mg/kg/injection, schedule: Q04DX003 (ip), vehicle: water) was 194 % of control; the T/C (endpoint: median survival time, dose: 87.0 mg/kg/injection, schedule: Q04DX003 (ip), vehicle: water) is 157 % of control and 172 % of control; the T/C (endpoint: median survival time, dose: 145.0 mg/kg/injection, schedule: Q04DX003 (ip), vehicle: water) is 110 % of control; the T/C (endpoint: median survival time, dose: 242.0 mg/kg/injection, schedule: Q04DX003 (ip), vehicle: water) is 89 % of control.
For the compound `O=[N+]([O-])c1cc(Cl)ccc1N1CCCCC1`, the T/C by setting is: under setting [1], 97 % of control; under setting [2], 98 % of control; under setting [3], 106 % of control.
Regarding `CC(=O)OC1=CCCCC1c1ccccc1` (stereo unspecified), the T/C under setting [1] is 103 % of control; the T/C under setting [4] was 98 % of control; the T/C under setting [2] was 111 % of control; the T/C under setting [5] is 98 % of control; the T/C under setting [3] was 103 % of control; the T/C under setting [6] was 109 % of control.
For the compound `Nc1ccccc1SC1CC(=O)N(c2ccc(Cl)cc2)C1=O` (stereo unspecified), the T/C runs as follows: under setting [1], 91 % of control; under setting [4], 89 % of control; under setting [2], 88 % of control; under setting [5], 101 % of control; under setting [3], 98 % of control; under setting [6], 97 % of control.
For the compound `C/C(CC(C)C)=N\NC(=O)Nc1cccc(Cl)c1C`, the T/C (endpoint: mean survival time, dose: 100.0 mg/kg/injection, schedule: Q01DX001 (ip), vehicle: Klucel (hydroxypropylcellulose) (HPC)) was 86 % of control; the T/C under setting [7] was 99 % of control and 103 % of control; the T/C (endpoint: mean survival time, dose: 100.0 mg/kg/injection, schedule: Q04DX002 (ip), vehicle: Klucel (hydroxypropylcellulose) (HPC)) was 98 % of control and 92 % of control; the T/C (endpoint: mean survival time, dose: 200.0 mg/kg/injection, schedule: Q01DX001 (ip), vehicle: Klucel (hydroxypropylcellulose) (HPC)) is 93 % of control; the T/C under setting [8] was 96 % of control and 99 % of control; the T/C (endpoint: mean survival time, dose: 200.0 mg/kg/injection, schedule: Q04DX002 (ip), vehicle: Klucel (hydroxypropylcellulose) (HPC)) is 103 % of control and 92 % of control. Besides, the T/C (endpoint: mean survival time, dose: 400.0 mg/kg/injection, schedule: Q01DX001 (ip), vehicle: Klucel (hydroxypropylcellulose) (HPC)) was 93 % of control; the T/C under setting [9] is 93 % of control and 95 % of control; the T/C (endpoint: mean survival time, dose: 400.0 mg/kg/injection, schedule: Q04DX002 (ip), vehicle: Klucel (hydroxypropylcellulose) (HPC)) is 95 % of control.
With `CC(=O)OC1COC(NC(=O)NNc2ccccc2)C(OC(C)=O)C1OC(C)=O` (stereo unspecified), the T/C under setting [10] was 88 % of control; the T/C (endpoint: mean survival time, dose: 100.0 mg/kg/injection, schedule: Q04DX003 (ip), vehicle: water) is 94 % of control; the T/C (endpoint: mean survival time, dose: 200.0 mg/kg/injection, schedule: Q01DX009 (ip), vehicle: saline) is 92 % of control; the T/C (endpoint: mean survival time, dose: 200.0 mg/kg/injection, schedule: Q04DX003 (ip), vehicle: water) was 97 % of control; the T/C (endpoint: mean survival time, dose: 400.0 mg/kg/injection, schedule: Q04DX003 (ip), vehicle: water) was 96 % of control.
As for `CC/C(=C(\CC)c1ccc(OCCOS(=O)(=O)c2ccccc2)cc1)c1ccc(OCCOS(=O)(=O)c2ccccc2)cc1`, the T/C is 101 % of control (endpoint: mean survival time, dose: 12.5 mg/kg/injection, schedule: Q04DX002 (ip), vehicle: saline); 101 % of control (endpoint: mean survival time, dose: 25.0 mg/kg/injection, schedule: Q04DX002 (ip), vehicle: saline); 101 % of control (endpoint: mean survival time, dose: 50.0 mg/kg/injection, schedule: Q04DX002 (ip), vehicle: saline).
Take `CCC(C)(N)C(=O)O` (stereo unspecified): the T/C by setting is: (endpoint: mean survival time, dose: 100.0 mg/kg/injection, schedule: Q01DX001 (ip), vehicle: saline) 102 % of control; (endpoint: mean survival time, dose: 200.0 mg/kg/injection, schedule: Q01DX001 (ip), vehicle: saline) 106 % of control; (endpoint: mean survival time, dose: 400.0 mg/kg/injection, schedule: Q01DX001 (ip), vehicle: saline) 102 % of control.
Regarding `CC(=O)C[N+]12CN3CN(CN(C3)C1)C2`, the T/C (endpoint: mean survival time, dose: 25.0 mg/kg/injection, schedule: Q01DX009 (ip), vehicle: saline) is 96 % of control; the T/C (endpoint: mean survival time, dose: 50.0 mg/kg/injection, schedule: Q01DX005 (ip), vehicle: saline) was 103 % of control; the T/C (endpoint: mean survival time, dose: 50.0 mg/kg/injection, schedule: Q01DX009 (ip), vehicle: saline) was 111 % of control; the T/C (endpoint: mean survival time, dose: 100.0 mg/kg/injection, schedule: Q01DX005 (ip), vehicle: saline) was 103 % of control; the T/C under setting [10] is 109 % of control; the T/C (endpoint: mean survival time, dose: 100.0 mg/kg/injection, schedule: Q04DX002 (ip), vehicle: saline) is 96 % of control. For the same compound, for the setting “endpoint: mean survival time, dose: 200.0 mg/kg/injection, schedule: Q04DX002 (ip), vehicle: saline”, the T/C was 107 % of control.
As for `O=C(CCOCc1ccccc1)N1Cc2cc3ccccc3nc2C1=O`, the T/C is, setting by setting: (endpoint: mean survival time, dose: 10.0 mg/kg/injection, schedule: Q07DX002 (ip), vehicle: alcohol) 89 % of control; (endpoint: mean survival time, dose: 20.0 mg/kg/injection, schedule: Q07DX002 (ip), vehicle: alcohol) 99 % of control; (endpoint: mean survival time, dose: 40.0 mg/kg/injection, schedule: Q07DX002 (ip), vehicle: alcohol) 92 % of control; (endpoint: mean survival time, dose: 80.0 mg/kg/injection, schedule: Q07DX002 (ip), vehicle: alcohol) 86 % of control.
Turning to `COc1ccc(CCl)cc1C(=O)O`, the T/C is 86 % of control (endpoint: mean survival time, dose: 75.0 mg/kg/injection, schedule: Q01DX001 (ip), vehicle: saline) and 91 % of control (endpoint: mean survival time, dose: 150.0 mg/kg/injection, schedule: Q01DX001 (ip), vehicle: saline).
On to `O=C(O)C1CC=CCCC1` (stereo unspecified), for which the T/C runs as follows: under setting [7], 96 % of control; (endpoint: mean survival time, dose: 100.0 mg/kg/injection, schedule: Q04DX003 (ip), vehicle: Klucel (hydroxypropylcellulose) (HPC)) 101 % of control; under setting [8], 96 % of control; (endpoint: mean survival time, dose: 200.0 mg/kg/injection, schedule: Q04DX003 (ip), vehicle: Klucel (hydroxypropylcellulose) (HPC)) 101 % of control; under setting [9], 93 % of control; (endpoint: mean survival time, dose: 400.0 mg/kg/injection, schedule: Q04DX003 (ip), vehicle: Klucel (hydroxypropylcellulose) (HPC)) 98 % of control.

(Values after PubChem BioAssay AID248 (DTP/NCI, 2004).)
